For 44 compounds, IC50 and Kd results are on record in ChEMBL document CHEMBL6153150, “Design, Synthesis, and Biological Evaluation of Chiral-Proline Derivatives as Novel HSP90 Inhibitors” (ACS Med Chem Lett, 2025).

One assay has as its system HCT-116. As to the kind of experiment: Antiproliferative activity against human HCT-116 cells assessed as cell viability inhibition rate incubated for 72 hr by MTT assay. The assay is classed as functional, cell-based. The conditions noted are these: HCT-116, 72 h.
Another assay has as its system A549. As to the kind of experiment: Antiproliferative activity against human A549 cells assessed as cell viability inhibition rate incubated for 72 hr by MTT assay. It counts as functional, cell-based. The conditions noted are these: A549, 72 h. Background: Tetrazolium dyes change colour on reduction, which living cells bring about.
For the next assay, the target named is Heat shock protein HSP90 (Homo sapiens, UniProt P07900+P08238). Briefly: Binding affinity to Hsp90 (unknown origin) assessed as dissociation constant incubated for 30 mins by fluorescence spectrophotometric analysis. The assay is classed as protein assay.
The test system of the next assay is SK-BR-3. As to the kind of experiment: Antiproliferative activity against human SK-BR-3 cells assessed as cell viability inhibition rate incubated for 72 hr by MTT assay. As to conditions: SK-BR-3, 72 h. It counts as functional, cell-based.
Another assay relates to MCF7. Briefly: Antiproliferative activity against human MCF7 cells assessed as cell viability inhibition rate incubated for 72 hr by MTT assay. The assay is classed as functional, cell-based. As to conditions: MCF7, 72 h.
In another assay the test system is K562. Briefly: Antiproliferative activity against human K562 cells assessed as cell viability inhibition rate incubated for 72 hr by MTT assay. It counts as functional, cell-based. The conditions noted are these: K562, 72 h.

As usually defined, the IC50 is the midpoint of a concentration-inhibition curve. Broadly, the Kd is the equilibrium constant for the complex coming apart. `CCOCCCNC(=O)[C@H]1C[C@H](c2ccccc2)CN1C(=O)c1cc(C(C)C)c(O)cc1O`: the half-maximal inhibitory concentration (IC50) came to 1.13 µM in the assay with HCT-116; 0.203 µM in the assay with A549; 0.933 µM in the assay on SK-BR-3; 0.231 µM in the assay with MCF7; 0.707 µM in the assay with K562. In addition, the Kd at Heat shock protein HSP90 is 1.098 µM. As for `CCNC(=O)[C@H]1C[C@H](c2ccccc2)CN1C(=O)c1cc(C(C)C)c(O)cc1O`, the dissociation constant Kd on Heat shock protein HSP90 amounted to 1.132 µM.

As for `O=C(NCc1ccc(F)cc1F)[C@H]1C[C@H](c2ccccc2)CN1C(=O)c1cc(C2CC2)c(O)cc1O`, the IC50 with HCT-116 came out at 0.272 µM; in the assay on A549 it was 0.054 µM; in the assay with SK-BR-3, 0.256 µM; in the assay on MCF7, 0.037 µM; in the assay with K562, 0.378 µM. In addition, the dissociation constant Kd on Heat shock protein HSP90 turned out to be 0.157 µM.

In the case of `O=C(c1ccc(O)cc1)N1Cc2ccccc2C1`, the Kd on Heat shock protein HSP90 worked out at 4.3 µM. `CCC1CCCCN1C(=O)[C@H]1C[C@H](c2ccccc2)CN1C(=O)c1cc(C(C)C)c(O)cc1O` (some centres undefined): the equilibrium dissociation constant (Kd) on Heat shock protein HSP90 was determined as 1.677 µM. `COc1ccc(C(C)NC(=O)[C@H]2C[C@H](c3ccccc3)CN2C(=O)c2cc(C(C)C)c(O)cc2O)cc1` (some centres undefined): the 50% inhibitory concentration (IC50) with HCT-116 came to 0.652 µM; in the assay with A549, 0.172 µM; with SK-BR-3, 0.721 µM; with MCF7, 0.17 µM; in the assay with K562, 0.533 µM. In addition, the dissociation constant (Kd) on Heat shock protein HSP90 was found to be 0.463 µM. Turning to `CC(C)c1cc(C(=O)N2C[C@@H](c3ccccc3)C[C@@H]2C(=O)N(C)C2CC2)c(O)cc1O`, the Kd on Heat shock protein HSP90 was 1.871 µM.

Turning to `COCCNC(=O)[C@H]1C[C@H](c2ccccc2)CN1C(=O)c1cc(C(C)C)c(O)cc1O`, the Kd on Heat shock protein HSP90 turned out to be 0.188 µM. Consider `COCCN(CCOC)C(=O)[C@H]1C[C@H](c2ccccc2)CN1C(=O)c1cc(C(C)C)c(O)cc1O`, for which the half-maximal inhibitory concentration (IC50) was 0.731 µM in the assay on HCT-116; 0.301 µM with A549; 0.877 µM with SK-BR-3; 0.375 µM in the assay with MCF7; 0.703 µM in the assay with K562. Also, at Heat shock protein HSP90, the Kd was 0.783 µM. Turning to `CC(C)C(C)NC(=O)[C@H]1C[C@H](c2ccccc2)CN1C(=O)c1cc(C2CC2)c(O)cc1O` (some centres undefined), the IC50 in the assay with HCT-116 worked out at 0.507 µM; with A549 it was 0.105 µM; in the assay on SK-BR-3, 0.787 µM; in the assay on MCF7, 0.204 µM; with K562, 0.631 µM. Further, at Heat shock protein HSP90, the equilibrium dissociation constant (Kd) was found to be 0.345 µM. Regarding `CCCCNC(=O)[C@H]1C[C@H](c2ccccc2)CN1C(=O)c1cc(C(C)C)c(O)cc1O`, the dissociation constant (Kd) at Heat shock protein HSP90 is 1.873 µM. As to `CC(C)c1cc(C(=O)N2C[C@@H](c3ccccc3)C[C@@H]2C(=O)N2CCN(c3ncccn3)CC2)c(O)cc1O`, at Heat shock protein HSP90, the equilibrium dissociation constant (Kd) is 1.631 µM.

For the compound `CC(C)c1cc(C(=O)N2C[C@@H](c3ccccc3)C[C@@H]2C(=O)N2CCCCC2)c(O)cc1O`, the Kd at Heat shock protein HSP90 was 1.337 µM. Same read-out and setting: the value for `CC(C)c1cc(C(=O)N2C[C@@H](c3ccccc3)C[C@@H]2C(=O)NC2CCCCC2)c(O)cc1O` was 1.076 µM; that for `COCCN1CCN(C(=O)[C@H]2C[C@H](c3ccccc3)CN2C(=O)c2cc(C(C)C)c(O)cc2O)CC1` was 0.637 µM.

As to `Cc1ccc(CNC(=O)[C@H]2C[C@H](c3ccccc3)CN2C(=O)c2cc(C3CC3)c(O)cc2O)cc1`, the IC50 is 0.471 µM with HCT-116; 0.089 µM with A549; 0.431 µM in the assay with SK-BR-3; 0.089 µM with MCF7; 0.566 µM in the assay on K562. In addition, the Kd on Heat shock protein HSP90 was 0.153 µM. For the compound `CC(C)c1cc(C(=O)N2C[C@@H](c3ccccc3)C[C@@H]2C(=O)NC2CC2)c(O)cc1O`, the Kd on Heat shock protein HSP90 worked out at 1.213 µM.

For `CCCNC(=O)[C@H]1C[C@H](c2ccccc2)CN1C(=O)c1cc(C(C)C)c(O)cc1O`, on Heat shock protein HSP90, the Kd was 1.653 µM. Regarding `CCN(CC)CCNC(=O)[C@H]1C[C@H](c2ccccc2)CN1C(=O)c1cc(C(C)C)c(O)cc1O`, the Kd at Heat shock protein HSP90 is 0.431 µM. As to `CC(C)c1cc(C(=O)N2C[C@@H](c3ccccc3)C[C@@H]2C(=O)N2CCN(C)CC2)c(O)cc1O`, the dissociation constant Kd at Heat shock protein HSP90 is 2.31 µM.

With `CC(C)c1cc(C(=O)N2C[C@@H](c3ccccc3)C[C@@H]2C(=O)N(C)Cc2ccccc2)c(O)cc1O`, the equilibrium dissociation constant (Kd) on Heat shock protein HSP90 is 2.331 µM. On to `CCCCN(C)C(=O)[C@H]1C[C@H](c2ccccc2)CN1C(=O)c1cc(C(C)C)c(O)cc1O`, for which, at Heat shock protein HSP90, the Kd was 1.637 µM.

`CC(C)c1cc(C(=O)N2C[C@@H](c3ccccc3)C[C@@H]2C(=O)N2CCC(OCC3CC3)CC2)c(O)cc1O`: at Heat shock protein HSP90, the dissociation constant (Kd) came out at 1.632 µM. For the compound `CC(C)c1cc(C(=O)N2C[C@@H](c3ccccc3)C[C@@H]2C(=O)N2CCCCC2C)c(O)cc1O` (some centres undefined), the Kd on Heat shock protein HSP90 was 2.171 µM. As for `CC(C)CN(C)C(=O)[C@H]1C[C@H](c2ccccc2)CN1C(=O)c1cc(C(C)C)c(O)cc1O`, the Kd at Heat shock protein HSP90 came to 1.573 µM. As to `CC(C)CCNC(=O)[C@H]1C[C@H](c2ccccc2)CN1C(=O)c1cc(C(C)C)c(O)cc1O`, on Heat shock protein HSP90, the Kd came out at 0.645 µM.

Consider `CC(C)c1cc(C(=O)N2C[C@@H](c3ccccc3)C[C@@H]2C(=O)N(C)C2CCCCC2)c(O)cc1O`, for which the dissociation constant (Kd) on Heat shock protein HSP90 was 1.762 µM. As for `CCN(C(=O)[C@H]1C[C@H](c2ccccc2)CN1C(=O)c1cc(C(C)C)c(O)cc1O)C(C)C`, the Kd at Heat shock protein HSP90 was 2.479 µM. As to `CC(C)c1cc(C(=O)N2C[C@@H](c3ccccc3)C[C@@H]2C(=O)NCCCn2ccnc2)c(O)cc1O`, on Heat shock protein HSP90, the Kd was 1.376 µM. For `CC(C)c1cc(C(=O)N2C[C@@H](c3ccccc3)C[C@@H]2C(=O)N2CCCC2)c(O)cc1O`, the equilibrium dissociation constant (Kd) on Heat shock protein HSP90 was determined as 2.033 µM. As to `CCOCCNC(=O)[C@H]1C[C@H](c2ccccc2)CN1C(=O)c1cc(C(C)C)c(O)cc1O`, the dissociation constant (Kd) at Heat shock protein HSP90 was 0.124 µM. For `CC(C)OCCCNC(=O)[C@H]1C[C@H](c2ccccc2)CN1C(=O)c1cc(C(C)C)c(O)cc1O`, the Kd at Heat shock protein HSP90 amounted to 0.202 µM. Consider `CCN(C)C(=O)[C@H]1C[C@H](c2ccccc2)CN1C(=O)c1cc(C(C)C)c(O)cc1O`, for which the dissociation constant Kd at Heat shock protein HSP90 came out at 1.873 µM. `CCCN1CCN(C(=O)[C@H]2C[C@H](c3ccccc3)CN2C(=O)c2cc(C(C)C)c(O)cc2O)CC1`: the equilibrium dissociation constant (Kd) at Heat shock protein HSP90 is 1.033 µM. For the compound `CC(C)c1cc(C(=O)N2C[C@@H](c3ccccc3)C[C@@H]2C(=O)N2CCN(C(C)C)CC2)c(O)cc1O`, the equilibrium dissociation constant (Kd) on Heat shock protein HSP90 was determined as 1.021 µM. As for `CC(C)c1cc(C(=O)N2C[C@@H](c3ccccc3)C[C@@H]2C(=O)N2CCN(CC3CC3)CC2)c(O)cc1O`, on Heat shock protein HSP90, the dissociation constant Kd came to 0.862 µM. Take `CC(C)c1cc(C(=O)N2C[C@@H](c3ccccc3)C[C@@H]2C(=O)N2CCN(Cc3ccccc3)CC2)c(O)cc1O`: the dissociation constant Kd at Heat shock protein HSP90 came out at 1.033 µM. In the case of `CC(C)c1cc(C(=O)N2C[C@@H](c3ccccc3)C[C@@H]2C(=O)NCC2CC2)c(O)cc1O`, the Kd on Heat shock protein HSP90 is 0.354 µM.

Take `CC1CCCN(C(=O)[C@H]2C[C@H](c3ccccc3)CN2C(=O)c2cc(C(C)C)c(O)cc2O)C1` (some centres undefined): the dissociation constant Kd on Heat shock protein HSP90 is 2.162 µM. For `CC(C)c1cc(C(=O)N2C[C@@H](c3ccccc3)C[C@@H]2C(=O)N2CCC(N3CCCCC3)CC2)c(O)cc1O`, the Kd at Heat shock protein HSP90 worked out at 0.983 µM. For `CCCN(CCC)C(=O)[C@H]1C[C@H](c2ccccc2)CN1C(=O)c1cc(C(C)C)c(O)cc1O`, the equilibrium dissociation constant (Kd) on Heat shock protein HSP90 was 2.516 µM. Consider `CC(C)c1cc(C(=O)N2C[C@@H](c3ccccc3)C[C@@H]2C(=O)NC2CCCC2)c(O)cc1O`, for which the dissociation constant Kd at Heat shock protein HSP90 is 0.876 µM. Still for that read-out and setting: the same measure for `CC(C)NC(=O)[C@H]1C[C@H](c2ccccc2)CN1C(=O)c1cc(C(C)C)c(O)cc1O`: 1.237 µM; for `CCCCCNC(=O)[C@H]1C[C@H](c2ccccc2)CN1C(=O)c1cc(C(C)C)c(O)cc1O`: 2.161 µM.
